Laboratory results published in BindingDB's records for doi:10.1016/j.bmcl.2005.02.011 (Florida Institute of Technology, 2005).

Test: Effective concentration for DP2 mediated chemotaxis in eosinophils
`CCCCC[C@H](O)/C=C/[C@H]1C(=O)C[C@H](O)[C@@H]1C/C=C/CCCC(=O)O` [(Z)-7-[(1R,2R,5S)-5-Hydroxy-2-((E)-(S)-3-hydroxy-oct-1-enyl)-3-oxo-cyclopentyl]-hept-5-enoic acid] gave an EC50 of 10 nM. With `CCCCC[C@](C)(O)/C=C/[C@H]1C(=O)C[C@H](O)[C@@H]1C/C=C/CCCC(=O)O` the EC50 was 128 nM. `CCCCC[C@@](C)(O)/C=C/[C@H]1C(=O)C[C@H](O)[C@@H]1C/C=C/CCCC(=O)O` [(Z)-7-[(1R,4S,5R)-5-Hydroxy-2-((R)-3-hydroxy-3-methyl-oct-1-enyl)-3-oxo-cyclopentyl]-hept-5-enoic acid] showed an EC50 of 1.7 nM.
